Measurements published in US20210386709A1, “COMPOSITIONS AND METHODS FOR SUPPRESSING MSUT2” (United States Government As Represented By The Department …, priority 2020, published 2021).
Where “and” joins values, the source holds several entries; their conditions need not be identical. Equal values may be shown once.

Assays:
PABPN1 = biological target: T1, PABPN1 (Homo sapiens, UniProt Q86U42); assay: Alpha Screen selectivity screen against PABPN1; assay type: binding; settings: Alpha Screen dose response IC50s
T1 construct: made in house; host or cells: E. coli BL21 (DE3)
T1 sequence (Q86U42 1-306): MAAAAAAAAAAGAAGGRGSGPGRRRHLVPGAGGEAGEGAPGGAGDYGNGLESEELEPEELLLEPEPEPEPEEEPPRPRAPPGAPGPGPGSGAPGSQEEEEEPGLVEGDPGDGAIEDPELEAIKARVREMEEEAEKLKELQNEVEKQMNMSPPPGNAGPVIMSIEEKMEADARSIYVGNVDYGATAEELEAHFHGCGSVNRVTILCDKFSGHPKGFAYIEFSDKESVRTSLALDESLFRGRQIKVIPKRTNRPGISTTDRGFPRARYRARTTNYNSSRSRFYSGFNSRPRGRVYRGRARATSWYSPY
Experimental: FIGS. 6A-B show the Selectivity screen. Compounds were screened by Alpha Screen (FIG. 6A) for MSUT2 and PABPN1 (FIG. 6B) dose response. IC50s indicated.
Alpha Screen Assay. Samples were set up in 384 well Perkin Elmer white opaque-bottom plates (PE06). A total reaction volume of […] was plated in 384 format using a CyBio Well Vario (6 μL of donor beads (10 μg/mL), 3 μL biotinylated RNA (250 nM), 3 μL GST-MSUT2 protein (250 nM) per well). 50 nL of compounds were transferred to wells via CyBio Vario equipped with Pin Tool. This mixture was incubated at room temperature for 30 minutes away from light. Next 3 μL of acceptor beads (1.25 μg/mL) was added. Plates were incubated at room temperature away from light for 60 minutes and subsequently read on a Perkin Elmer EnVision multimode microplate reader equipped with stackers using a standard 384-well Alpha Assay software protocol.
Screening of the Spectrum Collection. […] The hit window consisted of those compounds 7 standard deviations from the mean (FIG. 2a). In follow up dose-response testing, 11 of the 20 initial hits were validated and moved forward to further validation studies (FIG. 3). Unbound fluorescein-labeled RNA rapidly rotates in solution compared to MSUT2-bound. […] These four compounds were tested for an effect on cell viability using a HEK-cell model. […]

HEK-293 cells = assay: Cell viability, Promega Cell Titer Glo
Experimental: Cell culture and cytotoxicity screen. […] Cell viability was assessed as using Promega Cell Titer Glo (Promega G7570) per manufacturer protocol. Briefly, HEK-293 cells were grown to 70% confluence in a 96 well plate were treated with indicated concentrations of compounds and incubated for 72 hours at 37° C. Plates were read for luminescence on Perkin Elmer Enspire Alpha.
Cell viability was assessed. Briefly, HEK-293 cells grown to 70% confluence in a 96 well dish were treated with varying concentrations of compound (final concentration of 2% DMSO) and incubated for 72 hours. Next, Promega Cell Titer Glo assay was used to assess viability per manufacturer instructions (Promega G7570).

MSUT2 ZF = biological target: T2, MSUT2 ZF (Homo sapiens, UniProt Q6PJT7); assay: Fluorescence polarization assay of FAM-poly(A) RNA:MSUT2 ZF binding; settings: by FP assay; read-out: Ki for MSUT2 by FP assay
T2 construct: Targeted construct consisted of the c-terminal end (dark blue and amino acids 601-736) of MSUT2; made in house; host or cells: E. coli BL21 (DE3)
T2 sequence (Q6PJT7 601-736): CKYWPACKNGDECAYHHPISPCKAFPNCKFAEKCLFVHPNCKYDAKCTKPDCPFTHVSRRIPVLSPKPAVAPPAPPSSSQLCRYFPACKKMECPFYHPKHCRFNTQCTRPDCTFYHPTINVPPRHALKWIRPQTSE
Experimental: Fluorescence Polarization Assay. […] 2 μL of compound was transferred for a final concentration of 10 μM. […] Fluorescence polarization was calculated by first subtracting background from a buffer-only control well and then using the equation
Results and Discussion. A high-throughput fluorescence polarization assay for inhibition of poly(A):MSUT2 RNA interaction. […] In order to screen potential inhibitors of MSUT2 RBP and RNA by FP, fluorescent FAM (fluorescein amidite)-labeled poly(A)15 RNA (FAM-RNA) and recombinant MSUT2 ZF (zinc finger) protein expressing constructs were generated (FIG. 7a). […] Inhibition of the interaction results in unbound FAM-RNA tumbling at a relatively rapid rate and emitting non-polarized light (FIG. 7b).
To determine the concentrations of both MSUT2 ZF protein and FAM-RNA probe useful in the methods described herein, a two dimensional titration of protein and RNA concentrations in 96-well format was performed. […] Next, the binding constant between MSUT2 ZF and FAM-RNA was determined by holding FAM-RNA constant at 10 nM while increasing MSUT2 ZF concentration.
Identification and validation of MSUT2 inhibitory compounds from NIHCC library. […] IC50 of each of the previous 8 compounds was determined for PABPN1 using fluorescence polarization (FIG. 11), and a specificity ratio determined (Table 3). An Alpha Screen (AS) assay was developed as an orthogonal screen. Briefly, in this screen, biotinylated RNA binds streptavidin-coated donor beads, while GST-MSUT2 ZF binds glutathione-coated acceptor beads. When donor beads and acceptor beads are brought within close proximity of one another, laser excitation leads to fluorophore emission of the acceptor bead via excited singlet oxygen activating chemiluminescers in the acceptor beads. […] Toxicity of these compounds in a HEK cell model was determined using a standard Promega Cell Titer Glo assay.
Fluorescence Polarization Assay. […] of stock compound was transferred yielding 10 μM final concentration. […] Fluorescence polarization was calculated by first subtracting background from a buffer-only control well and then using the equation

Structure (SMILES): O=c1c2ccccc2[se]n1-c1ccccc1 [Ebselen]
- fold selectivity for MSUT2 over PABPN1 (PABPN1): 5 fold and 4.6 fold
- toxicity (effect on cell viability) (HEK-293 cells; HEK-293, 72 hours, indicated concentrations): did not show toxicity in a dose-dependent manner
- reduction of cell viability (HEK-293 cells; HEK-293, at the tested doses, compared to DMSO control): roughly 40%
- Ki (MSUT2 ZF): 1020 nM
